Read-outs that look alike come from different tables or passages of the source.
Assays:
[1] = molecular target: insulin receptor kinase (Homo sapiens (Human), UniProt P06213); conditions: range stated jointly for PKA and insulin receptor kinase; cited from earlier work
[2] = molecular target: T1, CSNK1A1 (Homo sapiens (Human), UniProt P48729); assay: Kinase enzymatic IC50 (Carna Biosciences mobility shift assay); type: biochemical
Experimental: Enzymatic assays were performed using a mobility shift assay on the LabChip system. Purified kinase protein was incubated with ATP, substrate, and assay buffer (20 mM Hepes—pH 7.5; 5 mM MgCl2, and 0.01% Triton X-100). The assay reaction was initiated with 5 μM ATP and with each compound present. Compounds were tested at the KM,ATP for the protein target (GST-tagged full-length human CK1α, available from Carna Biosciences, Japan) or over a range of ATP concentrations between 5 μM and 9 μM. […] AC50 values were determined using phosphorylated and unphosphorylated substrates.

[3] = molecular target: protein kinase A (PKA); conditions: range stated jointly for PKA and insulin receptor kinase; cited from earlier work
[4] = tested on: more than 450 kinase assays; assay: Kinome-wide profiling using the Kinomescan assay; type: binding
Description: (§1) The Kinomescan assay is a site-directed small molecule competition binding assay to quantitatively measure interactions between test compounds and more than 450 kinase assays. The assay employs DNA-tagged kinase proteins and a bead-immobilized kinase ligand. Active test compounds compete with the immobilized ligand and decrease the amount of bead-bound kinase. The assay result is detected using a multiplex quantitative PCR approach.

[5] = molecular target: T1, CSNK1A1; assay: Kinomescan competition binding assay, confirmatory Kd
Description: as §1, with “Active test compounds compete with the immobilized ligand and decrease the amount of bead-bound kinase.” left out

[6] = molecular target: CSNK1D (Homo sapiens (Human), UniProt P48730); assay: as above; conditions: confirmatory testing
Description: as §1

[7] = tested on: HT-29; assay: Cell viability by ATP abundance at 5 days (Cell Titer Glo); type: cell-based
Experimental: In addition to its role as a target in hematologic malignancies, CSNK1A1 expression is also essential to certain epithelial cancer cell lines. […] Results from each independent RNA interference construct were summarized into a single gene-level score, and the colorectal distribution of sensitivities was evaluated against the other lineages by the Mann-Whitney test as shown in FIG. 4A. […] Cell viability was assessed by ATP abundance at 5 days using the Cell Titer Glo assay.
Cell viability assays were conducted against colorectal carcinoma cell line HT29. Cells were plated in wells and at 24 hours after plating, compounds were added to determine their effect on cell viability at various dosages. After 48 hours from compound administration, the cell viability was determined and the IC50 values were calculated. […] FIG. 4B illustrates the results of another cell viability measurement and IC50 value for Compound 1 assessed by ATP abundance on HT29 at 5 days.

[8] = Table 1, CSNK1A1 inhibitors, read-out: IC50

T1 sequence (P48729 whole entry): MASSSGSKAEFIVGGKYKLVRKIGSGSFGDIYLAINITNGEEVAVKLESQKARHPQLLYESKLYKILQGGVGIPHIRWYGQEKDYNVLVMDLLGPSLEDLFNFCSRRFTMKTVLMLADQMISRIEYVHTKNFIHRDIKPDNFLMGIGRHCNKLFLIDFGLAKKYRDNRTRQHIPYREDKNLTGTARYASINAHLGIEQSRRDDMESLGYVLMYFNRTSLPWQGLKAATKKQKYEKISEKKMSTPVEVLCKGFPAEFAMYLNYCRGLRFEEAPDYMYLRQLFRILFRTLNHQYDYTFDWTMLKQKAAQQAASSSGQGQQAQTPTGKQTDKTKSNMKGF
CSNK1D, sequence (P48730 whole entry): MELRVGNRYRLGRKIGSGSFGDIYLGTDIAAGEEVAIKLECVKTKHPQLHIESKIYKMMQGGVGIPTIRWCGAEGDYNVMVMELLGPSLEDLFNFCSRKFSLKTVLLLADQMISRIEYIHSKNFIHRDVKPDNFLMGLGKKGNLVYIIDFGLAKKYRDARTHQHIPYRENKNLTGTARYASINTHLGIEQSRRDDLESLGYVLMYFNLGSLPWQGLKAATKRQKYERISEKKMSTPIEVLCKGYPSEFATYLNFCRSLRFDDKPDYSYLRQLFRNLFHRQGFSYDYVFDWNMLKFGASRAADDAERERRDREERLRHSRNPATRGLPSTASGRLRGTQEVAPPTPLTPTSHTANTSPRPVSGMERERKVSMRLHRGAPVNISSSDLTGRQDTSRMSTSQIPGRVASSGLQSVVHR
insulin receptor kinase, sequence (P06213 28-1382): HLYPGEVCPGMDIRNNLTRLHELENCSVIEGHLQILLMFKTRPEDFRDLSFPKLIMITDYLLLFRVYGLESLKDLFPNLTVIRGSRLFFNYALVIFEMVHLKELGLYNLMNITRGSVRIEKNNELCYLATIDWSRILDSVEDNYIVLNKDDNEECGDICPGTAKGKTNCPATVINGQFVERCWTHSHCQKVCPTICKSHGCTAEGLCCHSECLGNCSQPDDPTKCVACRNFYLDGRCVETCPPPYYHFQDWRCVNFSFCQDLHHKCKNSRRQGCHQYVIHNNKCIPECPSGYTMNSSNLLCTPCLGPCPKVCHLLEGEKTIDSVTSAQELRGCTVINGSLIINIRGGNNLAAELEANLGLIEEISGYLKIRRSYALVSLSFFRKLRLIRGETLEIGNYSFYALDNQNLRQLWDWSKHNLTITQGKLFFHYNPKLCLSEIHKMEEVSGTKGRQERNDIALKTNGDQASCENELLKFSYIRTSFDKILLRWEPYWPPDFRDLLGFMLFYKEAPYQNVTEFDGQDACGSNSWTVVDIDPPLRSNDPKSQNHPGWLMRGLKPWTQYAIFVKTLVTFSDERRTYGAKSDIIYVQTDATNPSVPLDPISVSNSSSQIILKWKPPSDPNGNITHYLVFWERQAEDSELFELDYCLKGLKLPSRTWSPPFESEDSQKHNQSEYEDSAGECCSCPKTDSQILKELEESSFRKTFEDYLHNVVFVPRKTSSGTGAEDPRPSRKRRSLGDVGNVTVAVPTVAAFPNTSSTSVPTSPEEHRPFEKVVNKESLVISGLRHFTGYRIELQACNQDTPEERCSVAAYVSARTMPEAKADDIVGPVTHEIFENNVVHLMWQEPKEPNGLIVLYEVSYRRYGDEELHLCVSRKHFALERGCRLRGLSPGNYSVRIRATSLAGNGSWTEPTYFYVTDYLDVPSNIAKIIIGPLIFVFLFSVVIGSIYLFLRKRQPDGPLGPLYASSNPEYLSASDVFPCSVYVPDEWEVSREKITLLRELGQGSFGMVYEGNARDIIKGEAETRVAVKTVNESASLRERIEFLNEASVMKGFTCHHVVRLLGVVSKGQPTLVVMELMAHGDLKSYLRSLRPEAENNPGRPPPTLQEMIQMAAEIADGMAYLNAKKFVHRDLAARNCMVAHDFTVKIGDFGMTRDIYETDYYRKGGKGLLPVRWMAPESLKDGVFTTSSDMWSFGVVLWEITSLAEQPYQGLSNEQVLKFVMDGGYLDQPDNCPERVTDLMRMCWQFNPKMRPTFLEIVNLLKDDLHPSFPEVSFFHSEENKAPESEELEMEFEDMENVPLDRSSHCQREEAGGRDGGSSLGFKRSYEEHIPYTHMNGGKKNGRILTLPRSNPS

Compound	IC50 [1] [nM]	IC50 [2, 8] [nM]	IC50 ([2]; known inhibitors, background text (rounded Table 1 values), read-out: IC50 against CSNK1A1) [nM]	IC50 [3] [nM]	binding specificity in kinome-wide profiling ([4]; 450 kinases tested at a single dose of 10 μM)	number of kinases bound ([4]; out of over 400 kinases tested)	Kd [5] [nM]	Kd [6] [nM]	IC50 [2] [nM]	cell viability of HT-29 [7]
Nc1ncnc2c1c(I)cn2[C@@H]1O[C@H](CO)[C@@H](O)[C@H]1O [5-iodotubercidin, 5-Iodo-7-β-D-ribofuranosyl-7H-pyrrolo[2,3-d]pyrimidin-4-amine, reference compound]	400 to 28000	287	290	400 to 28000	–	–	–	–	–	–
CCN1CCN(c2nc3ccccc3nc2C(C#N)C(=O)OC2CCCCC2)CC1 (centres unmarked) [compound 1, cyclohexyl 2-cyano-2-(3-(4-ethylpiperazin-1-yl)quinoxalin-2-yl)acetate]	–	12900	–	–	remarkable specificity for compound binding to CSNK1A1	six	1700	3200	10100	inhibited

Source: patent US11633415B2, “Compounds and methods useful for treating or preventing cancers” (priority 2017, dated 2023)
